{
  "source": "ChEMBL document CHEMBL1150386",
  "about": "(J Med Chem, 2008)",
  "key": {"Acetylcholinesterase [1]": {"biological_target": "T1, Acetylcholinesterase (Rattus norvegicus, UniProt P37136)", "T1 sequence (P37136 whole entry)": "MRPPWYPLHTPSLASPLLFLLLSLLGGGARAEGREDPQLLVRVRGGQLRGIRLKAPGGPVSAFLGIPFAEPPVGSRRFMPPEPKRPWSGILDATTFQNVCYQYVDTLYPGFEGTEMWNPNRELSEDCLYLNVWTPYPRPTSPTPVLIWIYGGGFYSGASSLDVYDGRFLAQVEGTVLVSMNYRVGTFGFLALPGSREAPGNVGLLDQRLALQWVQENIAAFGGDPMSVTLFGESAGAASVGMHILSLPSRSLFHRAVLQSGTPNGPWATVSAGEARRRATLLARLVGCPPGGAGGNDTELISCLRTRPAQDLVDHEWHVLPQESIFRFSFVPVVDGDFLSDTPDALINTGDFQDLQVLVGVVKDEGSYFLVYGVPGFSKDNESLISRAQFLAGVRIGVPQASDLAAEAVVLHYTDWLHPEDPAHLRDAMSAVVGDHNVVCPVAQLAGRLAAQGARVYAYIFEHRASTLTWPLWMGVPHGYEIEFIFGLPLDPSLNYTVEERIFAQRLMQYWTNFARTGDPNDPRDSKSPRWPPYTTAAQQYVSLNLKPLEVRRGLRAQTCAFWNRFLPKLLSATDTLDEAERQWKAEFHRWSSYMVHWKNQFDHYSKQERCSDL"}, "Acetylcholinesterase [2]": {"biological_target": "T2, Acetylcholinesterase (Mus musculus, UniProt P21836)", "T2 sequence (P21836 whole entry)": "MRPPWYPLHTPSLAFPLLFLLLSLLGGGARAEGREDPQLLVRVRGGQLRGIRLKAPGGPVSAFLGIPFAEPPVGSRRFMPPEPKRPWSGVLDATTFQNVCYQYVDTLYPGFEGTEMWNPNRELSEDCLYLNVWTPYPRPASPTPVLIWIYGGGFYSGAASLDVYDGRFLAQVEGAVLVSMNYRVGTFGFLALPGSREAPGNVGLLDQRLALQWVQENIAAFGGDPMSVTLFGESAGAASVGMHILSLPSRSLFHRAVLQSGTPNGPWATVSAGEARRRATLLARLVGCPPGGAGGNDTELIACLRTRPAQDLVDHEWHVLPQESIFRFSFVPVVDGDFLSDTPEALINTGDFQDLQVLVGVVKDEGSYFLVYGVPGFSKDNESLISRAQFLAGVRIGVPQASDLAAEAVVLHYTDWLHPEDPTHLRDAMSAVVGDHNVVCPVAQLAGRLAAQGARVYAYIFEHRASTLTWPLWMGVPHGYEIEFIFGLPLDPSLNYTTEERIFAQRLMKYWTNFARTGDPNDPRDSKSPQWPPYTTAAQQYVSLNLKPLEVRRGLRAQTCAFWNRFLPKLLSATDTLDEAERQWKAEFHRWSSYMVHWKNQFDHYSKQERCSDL", "description": "Binding affinity to mouse AChE"}, "Acetylcholinesterase [3]": {"biological_target": "T2, Acetylcholinesterase", "remark": "listed apart in the source", "description": "Binding affinity to mouse AChE by equilibrium binding assay"}, "Acetylcholinesterase [4]": {"biological_target": "T3, Acetylcholinesterase (Bos taurus, UniProt P23795)", "T3 sequence (P23795 whole entry)": "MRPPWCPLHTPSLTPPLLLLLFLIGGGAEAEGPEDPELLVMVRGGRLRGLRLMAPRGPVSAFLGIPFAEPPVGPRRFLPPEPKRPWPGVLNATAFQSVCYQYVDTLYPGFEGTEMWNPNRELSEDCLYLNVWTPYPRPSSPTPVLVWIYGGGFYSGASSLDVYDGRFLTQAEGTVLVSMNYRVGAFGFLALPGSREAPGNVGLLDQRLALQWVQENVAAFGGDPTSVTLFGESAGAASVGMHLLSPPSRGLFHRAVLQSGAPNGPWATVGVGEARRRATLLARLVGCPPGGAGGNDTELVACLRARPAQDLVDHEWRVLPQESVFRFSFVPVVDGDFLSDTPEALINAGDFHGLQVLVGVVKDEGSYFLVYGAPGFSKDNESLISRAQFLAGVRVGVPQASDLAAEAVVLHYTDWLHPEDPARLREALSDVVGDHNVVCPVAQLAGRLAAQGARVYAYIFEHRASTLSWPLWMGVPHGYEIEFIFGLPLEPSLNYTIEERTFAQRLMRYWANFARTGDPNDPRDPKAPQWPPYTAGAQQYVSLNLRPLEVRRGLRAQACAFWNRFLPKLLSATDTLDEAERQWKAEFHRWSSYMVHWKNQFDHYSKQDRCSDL", "assay": "Inhibition of bovine AChE"}, "Butyrylcholinesterase": {"biological_target": "Butyrylcholinesterase (Rattus norvegicus, UniProt Q9JKC1)", "sequence (Q9JKC1 whole entry)": "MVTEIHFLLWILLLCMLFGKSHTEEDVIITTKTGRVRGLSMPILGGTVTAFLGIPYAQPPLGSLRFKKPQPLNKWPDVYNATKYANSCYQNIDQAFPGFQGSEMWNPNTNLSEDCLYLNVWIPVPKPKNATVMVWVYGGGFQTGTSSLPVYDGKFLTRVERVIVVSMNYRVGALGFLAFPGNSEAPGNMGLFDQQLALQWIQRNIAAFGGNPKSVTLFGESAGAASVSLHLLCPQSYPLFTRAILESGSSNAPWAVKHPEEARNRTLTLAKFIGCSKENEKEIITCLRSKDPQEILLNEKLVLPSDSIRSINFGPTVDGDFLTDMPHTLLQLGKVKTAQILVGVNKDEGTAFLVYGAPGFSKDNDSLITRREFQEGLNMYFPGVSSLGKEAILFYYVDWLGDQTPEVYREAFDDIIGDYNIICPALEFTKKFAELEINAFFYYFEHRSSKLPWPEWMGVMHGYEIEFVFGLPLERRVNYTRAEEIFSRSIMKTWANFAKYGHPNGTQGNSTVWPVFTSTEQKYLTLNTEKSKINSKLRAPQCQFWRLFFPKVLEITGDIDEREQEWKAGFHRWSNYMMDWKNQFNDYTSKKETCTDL"}, "Acetylcholinesterase [5]": {"biological_target": "T4, Acetylcholinesterase (Torpedo californica, UniProt P04058)", "T4 sequence (P04058 whole entry)": "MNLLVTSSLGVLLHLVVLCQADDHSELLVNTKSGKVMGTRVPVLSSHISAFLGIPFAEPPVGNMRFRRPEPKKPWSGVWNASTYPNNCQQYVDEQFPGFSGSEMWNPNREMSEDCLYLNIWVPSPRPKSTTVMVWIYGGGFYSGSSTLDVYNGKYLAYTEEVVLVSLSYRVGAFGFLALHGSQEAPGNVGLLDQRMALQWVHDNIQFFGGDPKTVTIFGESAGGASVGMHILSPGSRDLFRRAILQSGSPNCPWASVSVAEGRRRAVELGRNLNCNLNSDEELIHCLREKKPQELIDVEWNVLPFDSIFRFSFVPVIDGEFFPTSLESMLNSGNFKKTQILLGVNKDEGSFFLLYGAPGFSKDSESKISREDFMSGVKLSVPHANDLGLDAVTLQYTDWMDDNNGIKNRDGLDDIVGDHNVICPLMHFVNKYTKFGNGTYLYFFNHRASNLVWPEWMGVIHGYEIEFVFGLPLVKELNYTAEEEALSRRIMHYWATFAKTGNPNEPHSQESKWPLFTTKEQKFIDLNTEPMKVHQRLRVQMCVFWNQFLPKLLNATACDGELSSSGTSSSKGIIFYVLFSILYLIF", "assay": "Inhibition of Torpedo californica AChE assessed as carbamylation", "design": "species or system Tetronarce californica"}, "Cholinesterase [6]": {"biological_target": "Cholinesterase (Equus caballus, UniProt P81908)", "sequence (P81908 whole entry)": "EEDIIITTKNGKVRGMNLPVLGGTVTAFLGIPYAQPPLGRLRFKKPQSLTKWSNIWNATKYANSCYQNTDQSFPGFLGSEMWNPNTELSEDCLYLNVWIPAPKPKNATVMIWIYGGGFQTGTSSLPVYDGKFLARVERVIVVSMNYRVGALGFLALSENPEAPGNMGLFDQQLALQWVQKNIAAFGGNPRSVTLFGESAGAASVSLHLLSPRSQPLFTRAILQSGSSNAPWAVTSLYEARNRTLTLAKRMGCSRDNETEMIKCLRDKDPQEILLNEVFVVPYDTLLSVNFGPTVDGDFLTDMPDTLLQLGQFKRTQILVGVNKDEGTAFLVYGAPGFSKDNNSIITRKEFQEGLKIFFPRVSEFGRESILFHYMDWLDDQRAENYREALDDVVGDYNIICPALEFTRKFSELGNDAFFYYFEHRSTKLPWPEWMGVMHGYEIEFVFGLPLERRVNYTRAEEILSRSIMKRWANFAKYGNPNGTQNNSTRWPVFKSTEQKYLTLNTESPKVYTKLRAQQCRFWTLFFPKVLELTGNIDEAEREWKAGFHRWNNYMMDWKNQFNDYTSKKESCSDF", "assay": "Inhibition of horse BuChE"}, "[7]": {"assay": "Ratio of Ki for fetal bovine serum AChE to Ki for horse BuChE"}, "Cholinesterase [8]": {"biological_target": "Cholinesterase (Mus musculus, UniProt Q03311)", "sequence (Q03311 whole entry)": "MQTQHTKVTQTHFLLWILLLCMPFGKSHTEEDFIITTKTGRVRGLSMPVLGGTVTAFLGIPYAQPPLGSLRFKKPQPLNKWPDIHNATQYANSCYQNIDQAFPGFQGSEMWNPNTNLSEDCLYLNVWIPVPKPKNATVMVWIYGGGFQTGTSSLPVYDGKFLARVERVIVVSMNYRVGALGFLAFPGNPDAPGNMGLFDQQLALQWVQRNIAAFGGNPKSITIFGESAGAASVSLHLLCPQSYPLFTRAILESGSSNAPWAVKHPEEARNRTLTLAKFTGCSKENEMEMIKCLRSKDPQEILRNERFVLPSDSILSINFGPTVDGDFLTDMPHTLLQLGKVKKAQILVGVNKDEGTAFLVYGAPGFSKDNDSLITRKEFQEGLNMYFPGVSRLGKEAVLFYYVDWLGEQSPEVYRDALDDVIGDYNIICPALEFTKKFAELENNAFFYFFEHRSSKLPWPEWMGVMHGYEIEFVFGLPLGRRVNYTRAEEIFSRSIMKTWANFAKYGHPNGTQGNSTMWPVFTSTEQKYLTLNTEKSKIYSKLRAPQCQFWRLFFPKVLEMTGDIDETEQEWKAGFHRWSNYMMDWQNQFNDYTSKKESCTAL", "description": "Inhibition of mouse BuChE"}, "Acetylcholinesterase [9]": {"biological_target": "T4, Acetylcholinesterase"}, "Acetylcholinesterase [10]": {"biological_target": "Acetylcholinesterase (Homo sapiens, UniProt P22303)", "sequence (P22303 whole entry)": "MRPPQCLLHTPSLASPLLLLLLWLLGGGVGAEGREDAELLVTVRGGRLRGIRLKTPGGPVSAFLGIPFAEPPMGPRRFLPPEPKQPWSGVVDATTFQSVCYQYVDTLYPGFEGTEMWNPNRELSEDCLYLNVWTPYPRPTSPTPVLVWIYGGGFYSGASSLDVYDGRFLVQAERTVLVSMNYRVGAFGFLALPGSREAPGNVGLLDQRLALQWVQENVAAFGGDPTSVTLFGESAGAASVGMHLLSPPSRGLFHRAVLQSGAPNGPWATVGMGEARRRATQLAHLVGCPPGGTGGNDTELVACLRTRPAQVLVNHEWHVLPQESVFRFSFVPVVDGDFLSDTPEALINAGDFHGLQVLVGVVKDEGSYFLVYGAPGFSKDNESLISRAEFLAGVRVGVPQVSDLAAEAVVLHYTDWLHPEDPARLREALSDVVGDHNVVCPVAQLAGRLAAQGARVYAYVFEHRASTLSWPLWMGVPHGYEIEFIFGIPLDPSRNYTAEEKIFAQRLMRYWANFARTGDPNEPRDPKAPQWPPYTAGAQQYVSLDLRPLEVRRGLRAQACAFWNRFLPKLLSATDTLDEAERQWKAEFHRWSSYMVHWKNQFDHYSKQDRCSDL", "assay": "Binding affinity to human AChE"}},
  "data": [
    {"smiles": "NCCCCCCCCNc1c2c(nc3ccccc13)CCCC2", "values": [
      {"measurement": "IC50", "setting": "Acetylcholinesterase [1]", "value": 1.5, "unit": "nM"}
    ]},
    {"smiles": "CC[N+](CC)(CCNC(=O)C(=O)NCC[N+](CC)(CC)Cc1ccccc1Cl)Cc1ccccc1Cl", "note": "[AMBENONIUM]", "values": [
      {"measurement": "Kd", "setting": "Acetylcholinesterase [2]", "value": 54000, "unit": "nM"},
      {"measurement": "Kd", "setting": "Acetylcholinesterase [3]", "value": 46000, "unit": "nM"}
    ]},
    {"smiles": "C[N+](C)(C)CCCCCCCCCC[n+]1c(-c2ccccc2)cc(N)c2ccc3ccc(N)cc3c21", "values": [
      {"measurement": "Kd", "setting": "Acetylcholinesterase [2]", "value": 79000, "unit": "nM"},
      {"measurement": "Kd", "setting": "Acetylcholinesterase [3]", "value": 160000, "unit": "nM"}
    ]},
    {"smiles": "C=CC[N+](C)(C)c1ccc(CCC(=O)CCc2ccc([N+](C)(C)CC=C)cc2)cc1", "values": [
      {"measurement": "Ki", "setting": "Acetylcholinesterase [4]", "value": 57.1, "unit": "nM"}
    ]},
    {"smiles": "c1ccc2c(c1)NC1CCCCC1=C2NCCCCCCCCNC1CCNC2CCCCC21", "note": "(stereo unspecified)", "values": [
      {"measurement": "IC50", "setting": "Acetylcholinesterase [1]", "value": 8.8, "unit": "nM"},
      {"measurement": "IC50", "setting": "Butyrylcholinesterase", "value": 110, "unit": "nM"}
    ]},
    {"smiles": "CCN(C)C(=O)Oc1cccc([C@H](C)N(C)C)c1", "note": "[RIVASTIGMINE]", "values": [
      {"measurement": "Ki", "setting": "Acetylcholinesterase [5]", "value": 0.033, "unit": "M⁻¹ s⁻¹"}
    ]},
    {"smiles": "CN(CCCNc1c2c(nc3ccccc13)CCCC2)CCCSc1c2c(nc3ccccc13)CCCC2", "values": [
      {"measurement": "Ki", "setting": "Cholinesterase [6]", "value": 4.2, "unit": "nM"},
      {"measurement": "Ratio Ki", "setting": "[7]", "value": 2.17}
    ]},
    {"smiles": "Nc1ccc2c(c1)c(-c1ccccc1)[n+](CCCCCCc1cnnn1CCNc1c3c(nc4ccccc14)CCCC3)c1cc(N)ccc21", "values": [
      {"measurement": "Ki", "setting": "Cholinesterase [8]", "value": 0.72, "unit": "nM"}
    ]},
    {"smiles": "CCc1ccccc1NC(=O)Oc1ccc2c(c1)[C@]1(C)CCN(C)O[C@@H]1N2C", "note": "[GANSTIGMINE]", "values": [
      {"measurement": "IC50", "setting": "Acetylcholinesterase [9]", "value": 5120, "unit": "nM"}
    ]},
    {"smiles": "c1ccc2c(NCCCCCCCNc3c4c(nc5ccccc35)CCCC4)c3c(nc2c1)CCCC3", "values": [
      {"measurement": "Ki", "setting": "Cholinesterase [6]", "value": 2, "unit": "nM"}
    ]},
    {"smiles": "CCC1=CC2Cc3nc4cc(Cl)ccc4c(N)c3[C@@H](C1)C2", "note": "[HUPRINE X]", "values": [
      {"measurement": "Ki", "setting": "Acetylcholinesterase [10]", "value": 0.67, "unit": "nM"}
    ]},
    {"smiles": "Nc1ccc2c(c1)c(-c1ccccc1)[n+](CCCCCCc1cn(CCNc3c4c(nc5ccccc35)CCCC4)nn1)c1cc(N)ccc21", "values": [
      {"measurement": "Ki", "setting": "Cholinesterase [8]", "value": 0.46, "unit": "nM"}
    ]}
  ]
}
